In ChEMBL document CHEMBL1155854, “Conformationally constrained farnesoid X receptor (FXR) agonists: Naphthoic acid-based analogs of GW 4064” (Bioorg Med Chem Lett, 2008):
Active and inactive are the calls of the source. No cut-off for these calls is given here.

Columns and labels:
Estrogen receptor = biological target: T1, Estrogen receptor (Homo sapiens, UniProt P03372); test: Agonist activity at ERalpha by fluorescence polarization assay; type: functional
T1 sequence (P03372 whole entry): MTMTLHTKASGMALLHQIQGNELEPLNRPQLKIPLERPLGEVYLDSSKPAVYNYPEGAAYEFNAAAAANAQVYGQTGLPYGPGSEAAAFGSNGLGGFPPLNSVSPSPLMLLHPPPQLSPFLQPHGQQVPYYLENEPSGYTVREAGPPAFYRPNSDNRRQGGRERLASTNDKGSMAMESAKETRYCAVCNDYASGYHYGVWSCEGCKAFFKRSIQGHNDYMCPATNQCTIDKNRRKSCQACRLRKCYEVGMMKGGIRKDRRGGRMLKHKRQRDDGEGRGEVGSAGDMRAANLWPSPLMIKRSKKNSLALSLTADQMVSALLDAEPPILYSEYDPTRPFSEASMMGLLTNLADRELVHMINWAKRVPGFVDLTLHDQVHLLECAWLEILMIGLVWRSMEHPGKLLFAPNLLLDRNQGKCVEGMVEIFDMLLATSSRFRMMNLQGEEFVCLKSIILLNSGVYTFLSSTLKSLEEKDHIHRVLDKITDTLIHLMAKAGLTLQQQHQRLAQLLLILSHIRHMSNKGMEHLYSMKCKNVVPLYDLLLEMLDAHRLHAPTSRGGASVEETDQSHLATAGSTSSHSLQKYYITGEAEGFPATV

Bile acid receptor = biological target: T2, Bile acid receptor (Homo sapiens, UniProt Q96RI1); test: Agonist activity at FXR assessed as receptor-SRC-1 peptide interaction by FRET assay; type: functional
T2 sequence (Q96RI1 whole entry): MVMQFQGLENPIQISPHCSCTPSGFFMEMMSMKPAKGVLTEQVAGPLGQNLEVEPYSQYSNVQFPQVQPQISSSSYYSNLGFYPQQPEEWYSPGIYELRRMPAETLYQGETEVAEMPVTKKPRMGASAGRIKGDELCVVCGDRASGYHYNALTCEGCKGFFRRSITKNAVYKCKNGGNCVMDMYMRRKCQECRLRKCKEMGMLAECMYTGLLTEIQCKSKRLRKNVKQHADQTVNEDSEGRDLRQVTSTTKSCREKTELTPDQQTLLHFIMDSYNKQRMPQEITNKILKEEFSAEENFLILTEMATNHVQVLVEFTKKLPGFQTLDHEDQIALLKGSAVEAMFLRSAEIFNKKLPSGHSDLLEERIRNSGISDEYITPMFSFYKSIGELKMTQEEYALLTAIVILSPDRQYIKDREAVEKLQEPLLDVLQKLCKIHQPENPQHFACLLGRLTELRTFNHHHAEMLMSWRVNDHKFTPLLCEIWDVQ

PXR = biological target: T3, PXR (Homo sapiens, UniProt O75469); test: Agonist activity at PXR by SPA assay; type: functional
T3 sequence (O75469 whole entry): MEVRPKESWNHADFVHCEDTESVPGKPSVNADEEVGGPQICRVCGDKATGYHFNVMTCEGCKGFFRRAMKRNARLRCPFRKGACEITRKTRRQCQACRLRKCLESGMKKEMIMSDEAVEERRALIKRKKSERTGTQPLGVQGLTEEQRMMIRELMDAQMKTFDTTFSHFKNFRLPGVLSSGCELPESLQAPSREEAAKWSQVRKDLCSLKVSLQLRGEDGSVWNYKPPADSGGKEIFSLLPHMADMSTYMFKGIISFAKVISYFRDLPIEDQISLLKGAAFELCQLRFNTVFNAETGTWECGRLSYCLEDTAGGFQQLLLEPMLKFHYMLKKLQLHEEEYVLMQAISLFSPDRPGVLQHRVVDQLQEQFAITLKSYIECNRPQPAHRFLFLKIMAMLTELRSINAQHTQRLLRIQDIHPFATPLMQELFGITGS

Rattus norvegicus [1] = test: Reduction of serum aspartate aminotransferase level in alpha-naphthyl-isothiocyanate-induced rat acute cholestasis model at 100 to 300 mg/kg, po bid for 4 days dosed before 2 days induction by alpha-naphthyl-isothiocyanate; type: functional, organism-based
[2] = Apparent permeability in MDCK cells; type: ADME, cell-based, Canis lupus familiaris; details: dog
Cytochrome P450 2C9 = Cytochrome P450 2C9 (Homo sapiens, UniProt P11712); test: Inhibition of CYP2C9 in pooled human liver microsome; type: ADME
[3] = biological target: Nuclear receptor subfamily 5 group A member 2 (Homo sapiens, UniProt O00482); test: Agonist activity at LRH assessed as receptor-coactivator peptide interaction by FRET assay; type: functional
Rattus norvegicus [4] = test: Reduction of serum alanine aminotransferase level in alpha-naphthyl-isothiocyanate-induced rat acute cholestasis model at 100 to 300 mg/kg, po bid for 4 days dosed before 2 days induction by alpha-naphthyl-isothiocyanate; type: functional, organism-based
[5] = Solubility in simulated gastric fluid at pH 1; type: physicochemical; details: simulated gi fluid
[6] = Half life in iv dosed Beagle dog; type: ADME, organism-based, Canis lupus familiaris; details: in vivo
[7] = biological target: T4, Bile acid receptor (Homo sapiens) (UniProt Q96RI1); test: Agonist activity at FXR assessed as receptor-SRC-1 peptide interaction by FRET assay relative to GW-4064; type: functional
T4 sequence (whole entry): T2 sequence (Q96RI1 whole entry)

Cytochrome P450 3A4 = Cytochrome P450 3A4 (Homo sapiens, UniProt P08684); test: Inhibition of CYP3A4 in pooled human liver microsome using midazolam substrate; type: ADME, microsomes
[8] = Volume of distribution at steady state in iv dosed rat; type: ADME, organism-based; details: in vivo, read-out: Vdss
[9] = Half life in iv dosed cynomolgus monkey; type: ADME, organism-based, Macaca fascicularis; details: in vivo
Glucocorticoid receptor = biological target: T5, Glucocorticoid receptor (Homo sapiens, UniProt P04150); test: Agonist activity at GR by fluorescence polarization assay; type: functional
T5 sequence (P04150 whole entry): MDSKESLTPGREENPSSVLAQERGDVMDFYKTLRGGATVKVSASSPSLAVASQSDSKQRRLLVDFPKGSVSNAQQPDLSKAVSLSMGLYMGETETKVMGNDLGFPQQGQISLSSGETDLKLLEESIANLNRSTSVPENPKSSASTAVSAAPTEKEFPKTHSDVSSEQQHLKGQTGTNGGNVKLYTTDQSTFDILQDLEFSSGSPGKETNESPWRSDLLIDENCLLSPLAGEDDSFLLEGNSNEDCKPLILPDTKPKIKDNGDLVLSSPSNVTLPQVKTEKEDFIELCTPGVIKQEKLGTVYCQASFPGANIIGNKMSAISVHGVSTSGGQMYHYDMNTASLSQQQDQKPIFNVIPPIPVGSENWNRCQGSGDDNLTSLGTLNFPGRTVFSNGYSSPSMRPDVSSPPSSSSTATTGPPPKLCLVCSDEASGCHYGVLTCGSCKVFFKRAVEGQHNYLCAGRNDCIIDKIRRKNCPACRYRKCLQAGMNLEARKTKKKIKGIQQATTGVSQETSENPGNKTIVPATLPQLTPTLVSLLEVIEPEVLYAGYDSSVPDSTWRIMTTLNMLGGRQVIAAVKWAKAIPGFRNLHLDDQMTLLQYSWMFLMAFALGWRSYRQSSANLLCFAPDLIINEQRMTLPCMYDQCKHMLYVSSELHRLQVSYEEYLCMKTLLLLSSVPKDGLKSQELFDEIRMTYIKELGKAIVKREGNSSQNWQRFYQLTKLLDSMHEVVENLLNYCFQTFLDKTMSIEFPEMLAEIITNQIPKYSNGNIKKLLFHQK

Chain of Cytochrome P450 3A4 (P08684 whole entry): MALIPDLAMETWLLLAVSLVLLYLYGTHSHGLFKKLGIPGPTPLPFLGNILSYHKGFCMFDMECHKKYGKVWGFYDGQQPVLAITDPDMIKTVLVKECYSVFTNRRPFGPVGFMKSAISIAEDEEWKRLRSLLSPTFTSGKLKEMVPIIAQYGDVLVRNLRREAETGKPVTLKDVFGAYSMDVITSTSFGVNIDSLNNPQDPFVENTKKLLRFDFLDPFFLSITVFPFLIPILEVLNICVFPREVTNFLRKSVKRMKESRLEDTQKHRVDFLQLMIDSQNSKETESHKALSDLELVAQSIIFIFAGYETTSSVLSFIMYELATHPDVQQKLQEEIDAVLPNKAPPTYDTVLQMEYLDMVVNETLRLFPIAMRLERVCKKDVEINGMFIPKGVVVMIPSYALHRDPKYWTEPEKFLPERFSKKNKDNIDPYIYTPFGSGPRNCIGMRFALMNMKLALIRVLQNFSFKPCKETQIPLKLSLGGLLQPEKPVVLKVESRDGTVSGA
Chain of Nuclear receptor subfamily 5 group A member 2 (O00482 whole entry): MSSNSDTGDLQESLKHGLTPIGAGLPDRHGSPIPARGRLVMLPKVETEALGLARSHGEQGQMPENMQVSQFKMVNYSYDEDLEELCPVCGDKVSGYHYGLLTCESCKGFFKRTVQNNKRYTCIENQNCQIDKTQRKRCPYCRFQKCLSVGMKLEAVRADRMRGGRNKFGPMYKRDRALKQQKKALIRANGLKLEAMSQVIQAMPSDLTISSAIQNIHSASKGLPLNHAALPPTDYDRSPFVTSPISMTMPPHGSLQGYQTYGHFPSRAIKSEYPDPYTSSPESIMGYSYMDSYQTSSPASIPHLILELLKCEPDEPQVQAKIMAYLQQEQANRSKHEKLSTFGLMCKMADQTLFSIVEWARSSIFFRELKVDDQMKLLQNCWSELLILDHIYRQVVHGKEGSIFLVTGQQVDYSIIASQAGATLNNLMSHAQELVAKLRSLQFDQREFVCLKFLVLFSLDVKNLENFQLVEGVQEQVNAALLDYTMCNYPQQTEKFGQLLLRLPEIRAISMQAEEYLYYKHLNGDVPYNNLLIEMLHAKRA
Chain of Cytochrome P450 2C9 (P11712 whole entry): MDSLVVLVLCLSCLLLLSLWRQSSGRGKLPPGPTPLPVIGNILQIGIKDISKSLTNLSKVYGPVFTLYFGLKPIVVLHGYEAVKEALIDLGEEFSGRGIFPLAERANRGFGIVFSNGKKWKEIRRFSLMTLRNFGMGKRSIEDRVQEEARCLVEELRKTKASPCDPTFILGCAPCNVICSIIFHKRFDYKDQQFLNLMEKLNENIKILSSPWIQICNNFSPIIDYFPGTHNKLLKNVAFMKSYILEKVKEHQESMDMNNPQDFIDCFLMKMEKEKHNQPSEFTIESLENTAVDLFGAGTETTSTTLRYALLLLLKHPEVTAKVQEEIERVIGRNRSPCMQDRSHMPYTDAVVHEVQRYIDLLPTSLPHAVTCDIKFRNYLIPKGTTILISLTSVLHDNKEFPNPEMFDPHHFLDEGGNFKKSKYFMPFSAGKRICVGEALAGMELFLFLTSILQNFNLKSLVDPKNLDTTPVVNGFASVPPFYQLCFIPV

- XC50 (Estrogen receptor): > 20 µM
- EC50 (Bile acid receptor): 0.087 µM
- XC50 (PXR): 3.1 µM
- Papp [2]: 19 ×10⁻⁶ cm/s
- IC50 (Cytochrome P450 2C9): 17 µM
- XC50 [3]: > 10 µM
- solubility [5]: < 1 ng/mL
- half-life [6]: 4.17 h
- %max [7]: 134%
- IC50 (Cytochrome P450 3A4): 7.2 µM
- Vd [8]: 1 L/kg
- half-life [9]: 1.5 h
- XC50 (Glucocorticoid receptor): > 20 µM
SMILES: CC(C)c1onc(-c2c(Cl)cccc2Cl)c1COc1ccc(-c2ccc3c(C(=O)O)cccc3c2)cc1
- Activity (Rattus norvegicus [1]): Active
- Activity (Rattus norvegicus [4]): Active
